Laboratory results taken from patent US20230040770A1, “HETEROCYCLIC COMPOUND AND USE THEREOF” (TAKEDA PHARMACEUTICAL COMPANY LIMITED, priority 2019, published 2023).

Target: T1, human orexin type 2 receptor (Homo sapiens, UniProt O43614)
T1 construct: expressed in transfected cells
T1 sequence (O43614 1-444): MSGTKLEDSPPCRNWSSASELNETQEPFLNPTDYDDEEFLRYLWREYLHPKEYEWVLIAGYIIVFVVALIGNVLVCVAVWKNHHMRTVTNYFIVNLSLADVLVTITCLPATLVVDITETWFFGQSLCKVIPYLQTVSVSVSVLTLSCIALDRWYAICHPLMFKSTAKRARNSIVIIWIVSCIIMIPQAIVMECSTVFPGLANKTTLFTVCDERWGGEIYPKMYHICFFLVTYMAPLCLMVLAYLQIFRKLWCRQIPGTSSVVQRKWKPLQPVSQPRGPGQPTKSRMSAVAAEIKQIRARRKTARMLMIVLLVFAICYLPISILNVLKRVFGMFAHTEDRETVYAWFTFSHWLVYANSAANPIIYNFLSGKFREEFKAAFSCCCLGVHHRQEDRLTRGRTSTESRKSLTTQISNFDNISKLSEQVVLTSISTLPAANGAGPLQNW
Assay: Measurement of orexin type 2 receptor agonist activity (calcium indicator fluorescence, CHO cells forcibly expressing human OX2 receptor)
Assay type: cell-based
Details: compound at 3 μM; 0% = DMSO, 100% = orexin A (human) 10 nM
Procedure, shortened: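 Agonist response normalised between vehicle (0%) and orexin A at 10 nM final (100%), from kinetic Fluo-4 calcium signals recorded for about 2 min after compound addition. Cells: stable human OX2R CHO clone, dye-loaded 30 min at 37 °C plus 30 min at room temperature.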

SMILES	OX2R agonist activity (3 μM, %) [%]
CCS(=O)(=O)N[C@@H]1[C@H](Cc2cccc(-c3ccccc3)c2F)N(C(=O)[C@H]2CCCO2)CC1(F)F [Example 105, N-{(2S,3R)-4,4-difluoro-2-[(2-fluoro[1,1′-biphenyl]-3-yl)methyl]-1-[(2R)-oxolane-2-carbonyl]pyrrolidin-3-yl}ethanesulfonamide]	99
CN(C)S(=O)(=O)N[C@@H]1[C@H](Cc2cccc(-c3ccccc3)c2F)N(C(=O)C2(O)CCC2)CC1(F)F [Example 145, N′-[(2S,3R)-4,4-difluoro-2-[(2-fluoro[1,1′-biphenyl]-3-yl)methyl]-1-(1-hydroxycyclobutane-1-carbonyl)pyrrolidin-3-yl]-N,N-dimethylsulfuric diamide]	99
CCS(=O)(=O)N[C@H]1[C@@H](F)CN(C(=O)C2CCO2)[C@H]1Cc1cccc(-c2cccc(F)c2F)c1F (stereo partly drawn) [Example 307, N-{(2S,3R,4S)-4-fluoro-1-(oxetane-2-carbonyl)-2-[(2,2′,3′-trifluoro[1,1′-biphenyl]-3-yl)methyl]pyrrolidin-3-yl}ethanesulfonamide]	100
CCS(=O)(=O)N[C@@H]1[C@H](Cc2cccc(-c3cccc(Cl)c3)c2F)N(C(=O)C2CCO2)CC1(F)F (stereo partly drawn) [Example 267, N-[(2S,3R)-2-[(3′-chloro-2-fluoro[1,1′-biphenyl]-3-yl)methyl]-4,4-difluoro-1-(oxetane-2-carbonyl)pyrrolidin-3-yl]ethanesulfonamide]	92
CCS(=O)(=O)N[C@@H]1[C@H](Cc2cccc(-c3cccc(F)c3F)c2)N(C(=O)C2CCO2)CC1(F)F (stereo partly drawn) [Example 175, N-[(2S,3R)-2-[(2′,3′-difluoro[1,1′-biphenyl]-3-yl)methyl]-4,4-difluoro-1-(oxetane-2-carbonyl)pyrrolidin-3-yl]ethanesulfonamide]	95
CS(=O)(=O)N[C@@H]1[C@H](Cc2cccc(-c3cccc(Cl)c3F)c2F)N(C(=O)C2CCO2)CC1(F)F (stereo partly drawn) [Example 263, N-[(2S,3R)-2-[(3′-chloro-2,2′-difluoro[1,1′-biphenyl]-3-yl)methyl]-4,4-difluoro-1-(oxetane-2-carbonyl)pyrrolidin-3-yl]methanesulfonamide]	103
CCS(=O)(=O)N[C@@H]1[C@H](Cc2cccc(-c3cccc(Cl)c3F)c2F)N(C(=O)C2CC2)CC1(F)F [Example 249, N-[(2S,3R)-2-[(3′-chloro-2,2′-difluoro[1,1′-biphenyl]-3-yl)methyl]-1-(cyclopropanecarbonyl)-4,4-difluoropyrrolidin-3-yl]ethanesulfonamide]	90
CCS(=O)(=O)N[C@@H]1[C@H](Cc2cccc(-c3cccc(F)c3)c2F)N(C(=O)[C@H]2C[C@@H](F)C2)CC1(F)F [Example 226, N-[(2S,3R)-2-[(2,3′-difluoro[1,1′-biphenyl]-3-yl)methyl]-4,4-difluoro-1-((1s,3R)-3-fluorocyclobutane-1-carbonyl)pyrrolidin-3-yl]ethanesulfonamide]	100

Further lines, results first:

OX2R agonist activity (3 μM, %) [%]	SMILES
93	O=C(C1CCO1)N1C[C@H](F)[C@H](NS(=O)(=O)C2CC2)[C@@H]1Cc1cccc(-c2cc(F)cc(F)c2)c1F (stereo partly drawn) [Example 479, N-{(2S,3R,4S)-4-fluoro-1-(oxetane-2-carbonyl)-2-[(2,3′,5′-trifluoro[1,1′-biphenyl]-3-yl)methyl]pyrrolidin-3-yl}cyclopropanesulfonamide]
86	CS(=O)(=O)N[C@H]1[C@@H](F)CN(C(=O)C2CCO2)[C@H]1Cc1cccc(-c2cccc(Cl)c2)c1F (stereo partly drawn) [Example 328, N-[(2S,3R,4S)-2-[(3′-chloro-2-fluoro[1,1′-biphenyl]-3-yl)methyl]-4-fluoro-1-(oxetane-2-carbonyl)pyrrolidin-3-yl]methanesulfonamide]
96	CCS(=O)(=O)N[C@H]1[C@@H](F)CN(C(=O)C2CCO2)[C@H]1Cc1cccc(-c2cccc(C)c2F)c1F (stereo partly drawn) [Example 499, N-[(2S,3R,4S)-2-[(2,2′-difluoro-3′-methyl[1,1′-biphenyl]-3-yl)methyl]-4-fluoro-1-(oxetane-2-carbonyl)pyrrolidin-3-yl]ethanesulfonamide]
95	Cc1cccc(-c2cccc(C[C@H]3[C@@H](NS(=O)(=O)N(C)C)C(F)(F)CN3C(=O)C3CCO3)c2F)c1 (stereo partly drawn) [Example 432, N′-[(2S,3R)-4,4-difluoro-2-[(2-fluoro-3′-methyl[1,1′-biphenyl]-3-yl)methyl]-1-(oxetane-2-carbonyl)pyrrolidin-3-yl]-N,N-dimethylsulfuric diamide]
92	CS(=O)(=O)N[C@@H]1[C@H](Cc2cccc(-c3cccc(F)c3F)c2F)N(C(=O)C2CC(F)C2)CC1(F)F (stereo partly drawn) [Example 436, N-{(2S,3R)-4,4-difluoro-1-(3-fluorocyclobutane-1-carbonyl)-2-[(2,2′,3′-trifluoro[1,1′-biphenyl]-3-yl)methyl]pyrrolidin-3-yl}methanesulfonamide]
94	CS(=O)(=O)N[C@@H]1[C@H](Cc2cccc(-c3cccc(F)c3)c2F)N(C(=O)C2CC(F)C2)CC1(F)F (stereo partly drawn) [Example 393, N-[(2S,3R)-2-[(2,3′-difluoro[1,1′-biphenyl]-3-yl)methyl]-4,4-difluoro-1-(3-fluorocyclobutane-1-carbonyl)pyrrolidin-3-yl]methanesulfonamide]
95	Cc1cccc(-c2cccc(C[C@H]3[C@@H](NS(=O)(=O)C4CC4)C(F)(F)CN3C(=O)N(C)C)c2F)c1 [Example 425, (2S,3R)-3-[(cyclopropanesulfonyl)amino]-4,4-difluoro-2-[(2-fluoro-3′-methyl[1,1′-biphenyl]-3-yl)methyl]-N,N-dimethylpyrrolidine-1-carboxamide]
95	CCS(=O)(=O)N[C@H]1[C@@H](F)CN(C(=O)N(C)C)[C@H]1Cc1cccc(-c2cccc(Cl)c2)c1F [Example 332, (2S,3R,4S)-2-[(3′-chloro-2-fluoro[1,1′-biphenyl]-3-yl)methyl]-3-[(ethanesulfonyl)amino]-4-fluoro-N,N-dimethylpyrrolidine-1-carboxamide]
97	Cc1cccc(-c2cccc(C[C@H]3[C@@H](NS(=O)(=O)C4CC4)C(F)(F)CN3C(=O)N(C)C)c2F)c1F [Example 521, (2S,3R)-3-[(cyclopropanesulfonyl)amino]-2-[(2,2′-difluoro-3′-methyl[1,1′-biphenyl]-3 yl)methyl]-4,4-difluoro-N,N-dimethylpyrrolidine-1-carboxamide]
100	CCS(=O)(=O)N[C@@H]1[C@H](Cc2cccc(-c3cccc(C(F)F)c3)c2F)N(C(=O)C2CC(F)C2)CC1(F)F (stereo partly drawn) [Example 506, N-[(2S,3R)-2-{[3′-(difluoromethyl)-2-fluoro[1,1′-biphenyl]-3-yl]methyl}-4,4-difluoro-1-(3-fluorocyclobutane-1-carobnyl)pyrrolidin-3-yl]ethanesulfonamide]
93	Cc1cccc(-c2cccc(C[C@H]3[C@@H](NS(=O)(=O)C4CC4)[C@@H](F)CN3C(=O)C3CCO3)c2F)c1F (stereo partly drawn) [Example 490, N-[(2S,3R,4S)-2-[(2,2′-difluoro-3′-methyl[1,1′-biphenyl]-3-yl)methyl]-4-fluoro-1-(oxetane-2-carobnyl)pyrrolidin-3-yl]cyclopropanesulfonamide]
